US10407467B2, “Polymyxin derivatives and their use in combination therapy together with different antibiotics” (priority 2013, dated 2019)
Structures can show the parent of a compound that is named as a salt. Bridge positions count the residues as written; N and C are the ends. Square brackets hold non-standard residues; d marks the D form. Peptide text beside a SMILES is read from it. * marks the point of attachment. ξ: configuration not given here. Thr(3ξ) = CC(O)[C@H](N)C(=O)O; X11 = O=C(C(O)c1cccc(Br)c1)*; X13 = O=C(CC[C@@H]1CCCN1)*; X9 = CC(C)[C@H](N)CCC(=O)*; Dab = NCC[C@H](N)C(=O)O; X14 = CC(C)(N)CCC(=O)*; βAla = NCCC(=O)O

Tests used:
Format in all cases: cell-based
Pseudomonas aeruginosa [1] = assay: MIC, compound in combination with a second agent (broth microdilution); details: 1:1 (wt:wt) combination with Rifampicin, MIC = total drug concentration; for MIC P. aeruginosa ATCC 27853: strain ATCC 27853; for MIC P. aeruginosa ATCC CRM-9027: strain ATCC CRM-9027; for MIC P. aeruginosa ATCC-47: strain ATCC-47; for MIC P. aeruginosa CCUG 59626: strain CCUG 59626
Summary of the method: (§1)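 MIC = combined concentration of test compound plus partner agent, mixed at equal mass (1:1 w/w, salt form as used). Up to four strains per species; colonies adjusted to 0.5 McFarland. Run in duplicate; >2-fold disagreement invalidates the run.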

Escherichia coli [2] = assay: as above; details: 1:1 (wt:wt) combination with Rifampicin, MIC = total drug concentration; for MIC E. coli ATCC25922: strain ATCC25922; for MIC E. coli NCTC9001: strain NCTC9001
Summary of the method: as §1

Acinetobacter baumannii [3] = assay: as above; details: 1:1 (wt:wt) combination with Rifampicin, MIC = total drug concentration; for MIC A. baumannii CCUG57249: strain CCUG57249; for MIC A. baumannii NCTC 13423: strain NCTC 13423; for MIC A. baumannii NCTC 13424: strain NCTC 13424
Summary of the method: as §1

Klebsiella pneumoniae [4] = assay: as above; details: 1:1 (wt:wt) combination with Rifampicin, MIC = total drug concentration; for MIC K. pneumoniae ATCC-BAA-2146: strain ATCC-BAA-2146; for MIC K. pneumoniae CCUG-59348: strain CCUG-59348; for MIC K. pneumoniae NCTC 13438: strain NCTC 13438
Summary of the method: as §1

Pseudomonas aeruginosa [5] = assay: MIC, sole activity (no second agent); details: in the absence of Rifampicin; for MIC P. aeruginosa ATCC 27853: strain ATCC27853; for MIC P. aeruginosa ATCCCRM-9027: strain ATCCCRM-9027
Summary of the method: (§2)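 First, isolated colonies grown 18-24 hours on Mueller-Hinton agar were suspended to 0.5 McFarland; next, up to four strains per pathogen were tested in duplicate in cation-adjusted MHB; finally, the lower concordant value or modal repeat value was reported against Polymyxin B.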

Escherichia coli [6] = assay: MIC, sole activity (no second agent); details: in the absence of Rifampicin; for MIC E. coli ATCC25922: strain ATCC25922; for MIC E. coli NCTC9001: strain NCTC9001
Summary of the method: as §2

Acinetobacter baumannii [7] = assay: MIC, sole activity (no second agent); details: in the absence of Rifampicin; for MIC A. baumannii ATCCBAA-747: strain ATCCBAA-747; for MIC A. baumannii NCTC 13423: strain NCTC13423
Summary of the method: as §2

Klebsiella pneumoniae [8] = assay: MIC, sole activity (no second agent); details: in the absence of Rifampicin; for MIC K. pneumoniae ATCC 4352: strain ATCC 4352; for MIC K. pneumoniae ATCC-BAA2146: strain ATCC-BAA2146; for MIC K. pneumoniae CCUG-59348: strain CCUG-59348; for MIC K. pneumoniae NCTC-13438: strain NCTC-13438
Summary of the method: as §2

| Structure (SMILES) | MIC P. aeruginosa ATCC 27853 (Pseudomonas aeruginosa [1]) [micrograms/mL] | MIC P. aeruginosa ATCC CRM-9027 (Pseudomonas aeruginosa [1]) [micrograms/mL] | MIC P. aeruginosa ATCC-47 (Pseudomonas aeruginosa [1]) [micrograms/mL] | MIC P. aeruginosa CCUG 59626 (Pseudomonas aeruginosa [1]) [micrograms/mL] | MIC E. coli ATCC25922 (Escherichia coli [2]) [micrograms/mL] | MIC E. coli NCTC9001 (Escherichia coli [2]) [micrograms/mL] | MIC A. baumannii CCUG57249 (Acinetobacter baumannii [3]) [micrograms/mL] | MIC A. baumannii NCTC 13423 (Acinetobacter baumannii [3]) [micrograms/mL] | MIC A. baumannii NCTC 13424 (Acinetobacter baumannii [3]) [micrograms/mL] | MIC K. pneumoniae ATCC-BAA-2146 (Klebsiella pneumoniae [4]) [micrograms/mL] | MIC K. pneumoniae CCUG-59348 (Klebsiella pneumoniae [4]) [micrograms/mL] | MIC K. pneumoniae NCTC 13438 (Klebsiella pneumoniae [4]) [micrograms/mL] | MIC P. aeruginosa ATCC 27853 (Pseudomonas aeruginosa [5]) [micrograms/mL] | MIC P. aeruginosa ATCCCRM-9027 (Pseudomonas aeruginosa [5]) [micrograms/mL] | MIC E. coli ATCC25922 (Escherichia coli [6]) [micrograms/mL] | MIC K. pneumoniae ATCC 4352 (Klebsiella pneumoniae [8]) [micrograms/mL] | MIC K. pneumoniae ATCC-BAA2146 (Klebsiella pneumoniae [8]) [micrograms/mL] | MIC K. pneumoniae CCUG-59348 (Klebsiella pneumoniae [8]) [micrograms/mL] | MIC K. pneumoniae NCTC-13438 (Klebsiella pneumoniae [8]) [micrograms/mL] | MIC E. coli NCTC9001 (Escherichia coli [6]) [micrograms/mL] | further results |
| --- | --- | --- | --- | --- | --- | --- | --- | --- | --- | --- | --- | --- | --- | --- | --- | --- | --- | --- | --- | --- | --- |
| CC(C)C[C@@H]1NC(=O)[C@@H](Cc2ccccc2)NC(=O)[C@H](CCN)NC(=O)[C@@H](NC(=O)[C@H](CCN)NC(=O)[C@@H](NC(=O)CCN)C(C)O)CCNC(=O)[C@H](C(C)O)NC(=O)[C@H](CCN)NC(=O)[C@H](CCN)NC1=O (stereo partly drawn) [Example 3, 3-Aminopropanoyl polymyxin B nonapeptide] (H-[βAla][Thr(3ξ)][Dab][Dab][Dab][dF]L[Dab][Dab][Thr(3ξ)]; lactam 4-C) |  |  |  |  |  | 0.25 |  |  |  | 1 | 8 | 2 | 0.125 | 0.25 | 2 | 0.125 | >32 | >32 | >32 |  | MIC A. baumannii ATCCBAA-747 (Acinetobacter baumannii [7]): 1 micrograms/mL; MIC A. baumannii NCTC 13423 (Acinetobacter baumannii [7]): 1 micrograms/mL |
| CC(C)C[C@@H]1NC(=O)[C@@H](Cc2ccccc2)NC(=O)[C@H](CCN)NC(=O)[C@@H](NC(=O)[C@H](CCN)NC(=O)[C@@H](NC(=O)C(O)c2cccc(Br)c2)C(C)O)CCNC(=O)[C@H](C(C)O)NC(=O)[C@H](CCN)NC(=O)[C@H](CCN)NC1=O (stereo partly drawn) [Example 18] (X11-[Thr(3ξ)][Dab][Dab][Dab][dF]L[Dab][Dab][Thr(3ξ)]; lactam 3-C) | 0.25 | 1 | 0.5 | 0.25 | 0.125 | 1 | ≤0.06 | 0.125 | 0.125 | 0.5 | 2 | 0.5 |  |  |  |  |  |  |  |  | MIC K. pneumoniae ATCC 4352 (Klebsiella pneumoniae [4]; strain ATCC 4352): 0.125 micrograms/mL |
| CC(C)C[C@@H]1NC(=O)[C@@H](Cc2ccccc2)NC(=O)[C@H](CCN)NC(=O)[C@@H](NC(=O)[C@H](CCN)NC(=O)[C@@H](NC(=O)CCC(C)(C)N)C(C)O)CCNC(=O)[C@H](C(C)O)NC(=O)[C@H](CCN)NC(=O)[C@H](CCN)NC1=O (stereo partly drawn) [Example 21, 4-Amino-4-methyl pentanoyl polymyxin B nonapeptide] (X14-[Thr(3ξ)][Dab][Dab][Dab][dF]L[Dab][Dab][Thr(3ξ)]; lactam 3-C) |  |  |  |  |  | 0.25 |  |  |  | 0.5 | 8 | 0.5 | <0.06 |  | 4 | 0.25 | >32 | >32 | >32 | >32 |  |
| CC(C)C[C@@H]1NC(=O)[C@@H](Cc2ccccc2)NC(=O)[C@H](CCN)NC(=O)[C@@H](NC(=O)[C@H](CCN)NC(=O)[C@@H](NC(=O)CC[C@@H](N)C(C)C)C(C)O)CCNC(=O)[C@H](C(C)O)NC(=O)[C@H](CCN)NC(=O)[C@H](CCN)NC1=O (stereo partly drawn) [Example 22, 4(R)-Amino-5-methylhexanoyl polymyxin B nonapeptide] (X9-[Thr(3ξ)][Dab][Dab][Dab][dF]L[Dab][Dab][Thr(3ξ)]; lactam 3-C) |  |  |  |  |  | 0.125 |  |  |  | 0.25 | 4 | 0.5 | 0.125 | 0.5 | 8 | 0.5 | >32 | >32 | >32 | >32 | MIC A. baumannii ATCCBAA-747 (Acinetobacter baumannii [7]): 1 micrograms/mL; MIC A. baumannii NCTC 13423 (Acinetobacter baumannii [7]): 0.5 micrograms/mL |

The next lines start with results.

| MIC P. aeruginosa ATCC 27853 (Pseudomonas aeruginosa [1]) [micrograms/mL] | MIC P. aeruginosa ATCC CRM-9027 (Pseudomonas aeruginosa [1]) [micrograms/mL] | MIC P. aeruginosa ATCC-47 (Pseudomonas aeruginosa [1]) [micrograms/mL] | MIC P. aeruginosa CCUG 59626 (Pseudomonas aeruginosa [1]) [micrograms/mL] | MIC E. coli ATCC25922 (Escherichia coli [2]) [micrograms/mL] | MIC E. coli NCTC9001 (Escherichia coli [2]) [micrograms/mL] | MIC A. baumannii CCUG57249 (Acinetobacter baumannii [3]) [micrograms/mL] | MIC A. baumannii NCTC 13423 (Acinetobacter baumannii [3]) [micrograms/mL] | MIC A. baumannii NCTC 13424 (Acinetobacter baumannii [3]) [micrograms/mL] | MIC K. pneumoniae ATCC-BAA-2146 (Klebsiella pneumoniae [4]) [micrograms/mL] | MIC K. pneumoniae CCUG-59348 (Klebsiella pneumoniae [4]) [micrograms/mL] | MIC K. pneumoniae NCTC 13438 (Klebsiella pneumoniae [4]) [micrograms/mL] | MIC P. aeruginosa ATCC 27853 (Pseudomonas aeruginosa [5]) [micrograms/mL] | MIC P. aeruginosa ATCCCRM-9027 (Pseudomonas aeruginosa [5]) [micrograms/mL] | MIC E. coli ATCC25922 (Escherichia coli [6]) [micrograms/mL] | MIC K. pneumoniae ATCC 4352 (Klebsiella pneumoniae [8]) [micrograms/mL] | MIC K. pneumoniae ATCC-BAA2146 (Klebsiella pneumoniae [8]) [micrograms/mL] | MIC K. pneumoniae CCUG-59348 (Klebsiella pneumoniae [8]) [micrograms/mL] | MIC K. pneumoniae NCTC-13438 (Klebsiella pneumoniae [8]) [micrograms/mL] | MIC E. coli NCTC9001 (Escherichia coli [6]) [micrograms/mL] | Structure (SMILES) | further results |
| --- | --- | --- | --- | --- | --- | --- | --- | --- | --- | --- | --- | --- | --- | --- | --- | --- | --- | --- | --- | --- | --- |
| 0.5 | 0.5 | 0.5 | 0.25 | 0.25 | 0.5 | 0.25 | 0.25 | 0.5 | 2 | 2 | 1 |  |  |  |  |  |  |  |  | CC(C)C[C@@H]1NC(=O)[C@@H](CC(C)C)NC(=O)[C@H](CCN)NC(=O)[C@@H](NC(=O)[C@H](CCN)NC(=O)[C@@H](NC(=O)C(O)C2CCCCC2)C(C)O)CCNC(=O)[C@H](C(C)O)NC(=O)[C@H](CCN)NC(=O)[C@H](CCN)NC1=O (single isomer, unassigned; isomer 1) [Example 31, 2(RS)-(2-Hydroxy-2-cyclohexyl)ethanoyl polymyxin E nonapeptide, TFA salt. Isomer 1] | MIC A. baumannii ATCC BAA-747 (Acinetobacter baumannii [3]; strain ATCC BAA-747): 0.25 micrograms/mL |
|  |  |  |  |  | 0.25 |  |  |  | 1 | 8 | 1 | 0.125 |  | 16 | 1 | >32 | >32 | >32 | >32 | CC(C)C[C@@H]1NC(=O)[C@@H](Cc2ccccc2)NC(=O)[C@H](CCN)NC(=O)[C@@H](NC(=O)[C@H](CCN)NC(=O)[C@@H](NC(=O)CC[C@@H]2CCCN2)C(C)O)CCNC(=O)[C@H](C(C)O)NC(=O)[C@H](CCN)NC(=O)[C@H](CCN)NC1=O (stereo partly drawn) [Example 23, 3-(S)-(1-pyrrolidin-2-yl)-propionyl polymyxin B nonapeptide] (X13-[Thr(3ξ)][Dab][Dab][Dab][dF]L[Dab][Dab][Thr(3ξ)]; lactam 3-C) |  |
